Source: ChEMBL document CHEMBL1949598, “Synthesis, cytostatic activity and ADME properties of C-5 substituted and N-acyclic pyrimidine derivatives” (Bioorg Med Chem Lett, 2012)
Calls of active or inactive are those of the source. The calls are words filed in the database; no cut-off is given here.

Assays:
[1] = Metabolic stability in mouse liver microsomes assessed as compound remaining at 1 uM after 60 mins by LC/MS/MS analysis; type: ADME, Microsome; settings: read-out: Stability
[2] = system: MDR1 (P-gp), human; assay: Apparent permeability from basolateral to apical side in MDCK2 cells expressing human MDR1 at 10 uM after 60 mins; type: ADME, cell-based, Canis lupus familiaris, MDCK-II; settings: dog, MDCK-MDR1
[3] = Half life in rat liver microsomes at 1 uM
[4] = system: MDR1 (P-gp), human; assay: Efflux ratio of apparent permeability from apical to basolateral over basolateral to apical side of MDCK2 cells expressing human MDR1 gene; type: ADME, cell-based, Canis lupus familiaris, MDCK-II; settings: dog, MDCK-MDR1
[5] = (§1) Efflux ratio of apparent permeability from apical to basolateral side over basolateral to apical side in MDCK2 cells expressing human MDR1 in presence of P-gp inhibitor elacridar; type: ADME, cell-based, Canis lupus familiaris, MDCK-II; settings: dog, mdck-ii
[6] = Half life in human plasma at 5 uM; type: ADME
[7] = system: MDR1 (P-gp), human; assay: Apparent permeability from apical to basolateral side in MDCK2 cells expressing human MDR1 at 10 uM after 60 mins; type: ADME, cell-based, Canis lupus familiaris, MDCK-II; settings: dog, MDCK-MDR1
[8] = Half life in human liver microsomes at 1 uM
[9] = Half life in rat plasma at 5 uM; type: ADME
[10] = Metabolic stability in human liver microsomes assessed as compound remaining at 1 uM after 60 mins by LC/MS/MS analysis; type: ADME, Microsome; settings: read-out: Stability
[11] = Half life in mouse liver microsomes at 1 uM
[12] = Metabolic stability in rat plasma assessed as compound remaining at 5 uM after 24 hrs by LC/MS/MS analysis; type: ADME, cell-free; settings: read-out: Stability
[13] = Metabolic stability in mouse plasma assessed as compound remaining at 5 uM after 24 hrs by LC/MS/MS analysis; type: ADME, cell-free; settings: read-out: Stability
[14] = Metabolic stability in human plasma assessed as compound remaining at 5 uM after 24 hrs by LC/MS/MS analysis; type: ADME, cell-free; settings: read-out: Stability
[15] = Metabolic stability in rat liver microsomes assessed as compound remaining at 1 uM after 60 mins by LC/MS/MS analysis; type: ADME, Microsome; settings: read-out: Stability
[16] = Half life in mouse plasma at 5 uM; type: ADME
[17] = system: HCT-116; assay: cells; settings: Homo sapiens, HCT-116, 72 h
[18] = system: MCF7; assay: cells; settings: Homo sapiens, MCF7, 72 h
Description: Cytotoxicity against human MCF7 cells after 72 hrs by MTT assay

[19] = system: NCI-H460; assay: Cytotoxicity against human H460 cells after 72 hrs by MTT assay; type: functional, cell-based; settings: NCI-H460, 72 h
[20] = system: MCF7; assay: Cytotoxicity against human MCF7 cells up to 100 uM after 72 hrs by MTT assay; type: functional, cell-based
[21] = system: HCT-116; assay: Cytotoxicity against human HCT116 cells up to 100 uM after 72 hrs by MTT assay; type: functional, cell-based
[22] = system: NCI-H460; assay: Cytotoxicity against human H460 cells up to 100 uM after 72 hrs by MTT assay; type: functional, cell-based
[23] = system: HCT-116; assay: Cell cycle arrest in human HCT116 cells assessed as accumulation of cells at sub-G1 phase at 1 uM after 48 hrs using propidium iodide staining by FACS analysis (reference value: 1.5%); type: functional
[24] = system: HCT-116; assay: Cell cycle arrest in human HCT116 cells assessed as accumulation of cells at G1 phase at 1 uM after 48 hrs using propidium iodide staining by FACS analysis (reference value: 42.3%); type: functional
[25] = system: HCT-116; assay: Cell cycle arrest in human HCT116 cells assessed as accumulation of cells at G1 phase at 5 uM after 24 hrs using propidium iodide staining by FACS analysis (reference value: 32.5%); type: functional
[26] = system: MDR1 (P-gp), human; assay: as §1; type: ADME, cell-based, Canis lupus familiaris, MDCK-II; settings: dog, MDCK-MDR1, with elacridar (P-gp inhibitor; concentration not stated)
[27] = system: HCT-116; assay: Cell cycle arrest in human HCT116 cells assessed as accumulation of cells at G1 phase at 1 uM after 24 hrs using propidium iodide staining by FACS analysis (reference value: 32.5%); type: functional
[28] = system: HCT-116; assay: Cell cycle arrest in human HCT116 cells assessed as accumulation of cells at S phase at 5 uM after 24 hrs using propidium iodide staining by FACS analysis (reference value: 50%); type: functional
[29] = system: HCT-116; assay: Cell cycle arrest in human HCT116 cells assessed as accumulation of cells at sub-G1 phase at 5 uM after 48 hrs using propidium iodide staining by FACS analysis (reference value: 1.5%); type: functional
[30] = system: HCT-116; assay: Cell cycle arrest in human HCT116 cells assessed as accumulation of cells at G2/M phase at 5 uM after 48 hrs using propidium iodide staining by FACS analysis (reference value: 26.6%); type: functional
[31] = system: HCT-116; assay: Cell cycle arrest in human HCT116 cells assessed as accumulation of cells at G1 phase at 5 uM after 48 hrs using propidium iodide staining by FACS analysis (reference value: 42.3%); type: functional
[32] = system: HCT-116; assay: Cell cycle arrest in human HCT116 cells assessed as accumulation of cells at G2/M phase at 1 uM after 24 hrs using propidium iodide staining by FACS analysis (reference value: 17.4%); type: functional
[33] = system: HCT-116; assay: Cell cycle arrest in human HCT116 cells assessed as accumulation of cells at S phase at 1 uM after 48 hrs using propidium iodide staining by FACS analysis (reference value: 31%); type: functional
[34] = system: HCT-116; assay: Cell cycle arrest in human HCT116 cells assessed as accumulation of cells at S phase at 5 uM after 48 hrs using propidium iodide staining by FACS analysis (reference value: 31%); type: functional
[35] = system: HCT-116; assay: Cell cycle arrest in human HCT116 cells assessed as accumulation of cells at G2/M phase at 5 uM after 24 hrs using propidium iodide staining by FACS analysis (reference value: 17.4%); type: functional
[36] = system: HCT-116; assay: Cell cycle arrest in human HCT116 cells assessed as accumulation of cells at sub-G1 phase at 1 uM after 24 hrs using propidium iodide staining by FACS analysis (reference value: 1.8%); type: functional
[37] = system: HCT-116; assay: Cell cycle arrest in human HCT116 cells assessed as accumulation of cells at G2/M phase at 1 uM after 48 hrs using propidium iodide staining by FACS analysis (reference value: 26.6%); type: functional
[38] = system: HCT-116; assay: Cell cycle arrest in human HCT116 cells assessed as accumulation of cells at sub-G1 phase at 5 uM after 24 hrs using propidium iodide staining by FACS analysis (reference value: 1.8%); type: functional
[39] = system: HCT-116; assay: Cell cycle arrest in human HCT116 cells assessed as accumulation of cells at S phase at 1 uM after 24 hrs using propidium iodide staining by FACS analysis (reference value: 50%); type: functional

Cc1nc(Cl)nc(Cl)c1CCCl
remaining at 1 h, 1 µM [1]: 41% | Papp B→A at 1 h, 10 µM [2]: 20.9 ×10⁻⁶ cm/s | half-life at 1 µM [3]: 2.23 h | efflux ratio [4]: 0.6 | Ratio [5]: 1.4 | half-life at 5 µM [6]: 10 h | Papp A→B at 1 h, 10 µM [7]: 35.8 ×10⁻⁶ cm/s | half-life at 1 µM [8]: 2.42 h | half-life at 5 µM [9]: 3.07 h | remaining at 1 h, 1 µM [10]: 76% | half-life at 1 µM [11]: 0.767 h | remaining at 24 h, 5 µM [12]: 3% | remaining at 24 h, 5 µM [13]: 22% | remaining at 24 h, 5 µM [14]: 20% | remaining at 1 h, 1 µM [15]: 74% | half-life at 5 µM [16]: 7.97 h

Clc1ncc2c(n1)OCC2
IC50 [17]: 13 µM | IC50 [18]: 45 µM | IC50 [19]: 22 µM | growth inhibition (GI) [20]: Active | growth inhibition (GI) [21]: Active | growth inhibition (GI) [22]: Active

COCn1cc(CCO)c(OC)nc1=O
growth inhibition (GI) [20]: inactive | growth inhibition (GI) [21]: inactive | growth inhibition (GI) [22]: inactive

COCn1cc(CCO)c(=O)[nH]c1=O
growth inhibition (GI) [20]: inactive | growth inhibition (GI) [21]: inactive | growth inhibition (GI) [22]: inactive

CC(=O)OCCc1c[nH]c(=O)[nH]c1=O
growth inhibition (GI) [20]: inactive | growth inhibition (GI) [21]: inactive | growth inhibition (GI) [22]: inactive

COCOCCc1cnc(OC)nc1OC
IC50 [17]: 75 µM | IC50 [18]: > 100 µM | IC50 [19]: > 100 µM | growth inhibition (GI) [20]: Active | growth inhibition (GI) [21]: Active | growth inhibition (GI) [22]: Active

COc1nc(Cl)ncc1CCO
growth inhibition (GI) [20]: inactive | growth inhibition (GI) [21]: inactive | growth inhibition (GI) [22]: inactive

COCn1cc(CCF)c(=O)[nH]c1=O
growth inhibition (GI) [20]: inactive | growth inhibition (GI) [21]: inactive | growth inhibition (GI) [22]: inactive

ClCCc1cnc(Cl)nc1Cl
remaining at 1 h, 1 µM [1]: 33% | Papp B→A at 1 h, 10 µM [2]: 25.8 ×10⁻⁶ cm/s | half-life at 1 µM [3]: 2.23 h | Activity [23]: 1.7% | efflux ratio [4]: 1.2 | Activity [24]: 41.7% | Activity [25]: 7.8% | efflux ratio [26]: 1.2 | half-life at 5 µM [6]: 2.55 h | Activity [27]: 33.5% | Papp A→B at 1 h, 10 µM [7]: 20.8 ×10⁻⁶ cm/s | IC50 [17]: 0.8 µM | half-life at 1 µM [8]: 1.73 h | Activity [28]: 14.6% | half-life at 5 µM [9]: 0.4 h | IC50 [18]: 10 µM | Activity [29]: 8.5% | remaining at 1 h, 1 µM [10]: 65% | Activity [30]: 60.7% | IC50 [19]: 3 µM | half-life at 1 µM [11]: 0.567 h | Activity [31]: 24.6% | remaining at 24 h, 5 µM [12]: 0% | Activity [32]: 17.2% | Activity [33]: 31.5% | Activity [34]: 14.8% | remaining at 24 h, 5 µM [13]: 0% | remaining at 24 h, 5 µM [14]: 0% | remaining at 1 h, 1 µM [15]: 73% | Activity [35]: 77.6% | Activity [36]: 2.5% | Activity [37]: 26.7% | Activity [38]: 8.1% | half-life at 5 µM [16]: 1.52 h | Activity [39]: 48.8%

COCn1c(=O)[nH]cc(CCO)c1=O
growth inhibition (GI) [20]: inactive | growth inhibition (GI) [21]: inactive | growth inhibition (GI) [22]: inactive

OCCc1cnc(Cl)nc1Cl
growth inhibition (GI) [20]: inactive | growth inhibition (GI) [21]: inactive | growth inhibition (GI) [22]: inactive

COc1ncc2c(n1)OCC2
growth inhibition (GI) [20]: inactive | growth inhibition (GI) [21]: inactive | growth inhibition (GI) [22]: inactive

COc1ncc(CCO)c(OC)n1
growth inhibition (GI) [20]: inactive | growth inhibition (GI) [21]: inactive | growth inhibition (GI) [22]: inactive

COCn1c(=O)[nH]cc(CCOC(C)=O)c1=O
growth inhibition (GI) [20]: inactive | growth inhibition (GI) [21]: inactive | growth inhibition (GI) [22]: inactive

COCn1cc(CCO)c(=O)n(COC)c1=O
growth inhibition (GI) [20]: inactive | growth inhibition (GI) [21]: inactive | growth inhibition (GI) [22]: inactive

O=c1[nH]cc(F)c(=O)[nH]1 [FLUOROURACIL]
IC50 [18]: 14 µM | IC50 [19]: 3 µM

COc1nc(Cl)ncc1CCF
growth inhibition (GI) [20]: inactive | growth inhibition (GI) [21]: inactive | growth inhibition (GI) [22]: inactive

COCn1cc(CCOC(C)=O)c(=O)[nH]c1=O
growth inhibition (GI) [20]: inactive | growth inhibition (GI) [21]: inactive | growth inhibition (GI) [22]: inactive

CC(=O)OCCc1cnc(Cl)nc1Cl
IC50 [17]: 29 µM | IC50 [18]: 30 µM | IC50 [19]: 31 µM | growth inhibition (GI) [20]: Active | growth inhibition (GI) [21]: Active | growth inhibition (GI) [22]: Active

COCOCCc1cn(COC)c(=O)nc1OC
growth inhibition (GI) [20]: inactive | growth inhibition (GI) [21]: inactive | growth inhibition (GI) [22]: inactive

COCn1cc(CCOC(C)=O)c(=O)n(COC)c1=O
growth inhibition (GI) [20]: inactive | growth inhibition (GI) [21]: inactive | growth inhibition (GI) [22]: inactive
